Source: ChEMBL document CHEMBL1201862, “PubChem BioAssay data set” (2004)
Blank lines part the entries; values can stand above or below the compound they belong to. Activity calls are given as the source filed them.

Key:
Assay type in all cases: functional
[1] = biological target: T1, Sentrin-specific protease 7 (Homo sapiens, UniProt Q9BQF6);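 further: Luminescence-based dose-response confirmation of ultra-high-throughput screening hits, measuring inhibition of SENP7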
T1 sequence (Q9BQF6 whole entry): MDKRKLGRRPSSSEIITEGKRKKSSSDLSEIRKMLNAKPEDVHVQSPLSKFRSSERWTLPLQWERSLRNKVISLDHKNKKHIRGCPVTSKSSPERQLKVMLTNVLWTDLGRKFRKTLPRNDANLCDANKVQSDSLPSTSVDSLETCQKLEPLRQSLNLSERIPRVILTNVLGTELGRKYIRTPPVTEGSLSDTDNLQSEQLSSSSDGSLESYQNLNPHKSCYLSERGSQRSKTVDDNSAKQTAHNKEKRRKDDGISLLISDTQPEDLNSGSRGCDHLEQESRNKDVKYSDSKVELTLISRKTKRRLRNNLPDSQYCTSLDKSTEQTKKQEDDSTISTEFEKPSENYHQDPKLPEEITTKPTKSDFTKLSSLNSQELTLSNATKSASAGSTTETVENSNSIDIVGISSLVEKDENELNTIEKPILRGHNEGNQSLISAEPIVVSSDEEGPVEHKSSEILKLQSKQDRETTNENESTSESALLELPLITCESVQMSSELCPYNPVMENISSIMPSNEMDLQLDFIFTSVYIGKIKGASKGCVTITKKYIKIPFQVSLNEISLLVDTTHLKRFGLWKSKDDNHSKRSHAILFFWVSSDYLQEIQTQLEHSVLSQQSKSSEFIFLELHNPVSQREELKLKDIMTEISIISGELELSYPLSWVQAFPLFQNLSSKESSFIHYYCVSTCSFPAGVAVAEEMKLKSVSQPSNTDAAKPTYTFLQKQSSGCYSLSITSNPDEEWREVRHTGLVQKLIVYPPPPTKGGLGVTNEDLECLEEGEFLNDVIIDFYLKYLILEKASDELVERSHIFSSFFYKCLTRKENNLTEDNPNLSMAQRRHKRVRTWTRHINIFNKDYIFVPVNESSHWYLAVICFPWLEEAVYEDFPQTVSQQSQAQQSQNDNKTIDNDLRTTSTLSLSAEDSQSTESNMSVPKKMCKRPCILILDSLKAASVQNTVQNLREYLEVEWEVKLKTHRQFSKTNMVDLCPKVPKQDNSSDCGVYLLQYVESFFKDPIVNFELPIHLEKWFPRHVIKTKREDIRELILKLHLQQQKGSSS

[2] = system: Vero; experiment: viability of Vero cells under compound – cytotoxicity control for flavivirus capping enzyme inhibitors (AID 588742); settings: Chlorocebus sabaeus
[3] = biological target: T2, Short transient receptor potential channel 4 (Mus musculus, UniProt Q9QUQ5); experiment: calcium entry via TRPC4 opening agents – cell-based, HEK293 TRPC4/mu-opioid, Fluo-4 calcium, dose response (AID 434937)
T2 sequence (Q9QUQ5 whole entry): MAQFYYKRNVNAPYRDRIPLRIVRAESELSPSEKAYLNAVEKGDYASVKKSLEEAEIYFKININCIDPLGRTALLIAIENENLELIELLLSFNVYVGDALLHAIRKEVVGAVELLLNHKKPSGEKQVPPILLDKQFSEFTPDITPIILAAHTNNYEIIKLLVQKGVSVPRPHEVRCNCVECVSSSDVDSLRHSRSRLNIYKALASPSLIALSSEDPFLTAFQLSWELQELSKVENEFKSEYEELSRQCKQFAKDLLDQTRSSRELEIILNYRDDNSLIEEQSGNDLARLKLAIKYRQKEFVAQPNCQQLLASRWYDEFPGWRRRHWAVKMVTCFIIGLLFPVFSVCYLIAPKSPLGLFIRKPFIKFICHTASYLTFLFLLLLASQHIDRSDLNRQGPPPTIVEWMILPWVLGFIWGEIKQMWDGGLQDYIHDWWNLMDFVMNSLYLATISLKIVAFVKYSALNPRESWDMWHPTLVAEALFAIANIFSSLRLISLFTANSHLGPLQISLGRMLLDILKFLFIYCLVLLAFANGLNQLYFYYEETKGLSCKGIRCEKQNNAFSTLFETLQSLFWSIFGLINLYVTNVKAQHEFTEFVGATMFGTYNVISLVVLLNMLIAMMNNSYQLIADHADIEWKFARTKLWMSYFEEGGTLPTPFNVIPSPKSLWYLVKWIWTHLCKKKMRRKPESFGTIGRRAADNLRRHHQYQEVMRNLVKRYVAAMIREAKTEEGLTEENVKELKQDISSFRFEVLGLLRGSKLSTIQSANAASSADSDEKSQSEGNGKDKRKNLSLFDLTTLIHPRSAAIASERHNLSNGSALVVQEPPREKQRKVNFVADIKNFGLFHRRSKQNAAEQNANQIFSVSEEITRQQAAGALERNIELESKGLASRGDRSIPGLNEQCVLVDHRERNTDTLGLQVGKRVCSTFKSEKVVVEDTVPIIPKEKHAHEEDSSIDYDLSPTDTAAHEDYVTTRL

[4] = reduction of Shn3 3'UTR-driven luciferase in osteoblasts – cell-based, Clone20 osteoblasts, firefly luciferase, cherry-picked, dose response (AID 624132);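 further: firefly luciferase luminescence from reporter carrying the Shn3 3'UTR in osteoblasts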
[5] = biological target: Mitogen-activated protein kinase 1 (Homo sapiens, UniProt P28482)
[6] = biological target: ALK tyrosine kinase receptor (Homo sapiens, UniProt Q9UM73);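 further: ALK tested as one member of a kinase panel screen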
[7] = biological target: Mitogen-activated protein kinase 13 (Homo sapiens, UniProt O15264)
[8] = biological target: Mitogen-activated protein kinase kinase kinase kinase 4 (Homo sapiens, UniProt O95819)
[9] = biological target: Protein kinase C delta type (Homo sapiens, UniProt Q05655)
[10] = biological target: Interleukin-1 receptor-associated kinase 4 (Homo sapiens, UniProt Q9NWZ3)
[11] = biological target: Tyrosine-protein kinase JAK3 (Homo sapiens, UniProt P52333)
[12] = biological target: Mitogen-activated protein kinase kinase kinase kinase 2 (Homo sapiens, UniProt Q12851);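 further: measured as one member of a kinome-wide kinase panel, with MAP4K2 as the panel entry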
[13] = biological target: Tyrosine-protein kinase receptor UFO (Homo sapiens, UniProt P30530)
[14] = biological target: SRSF protein kinase 1 (Homo sapiens, UniProt Q96SB4);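 further: measured as one member of a kinome-wide kinase profiling panel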
[15] = biological target: Serine/threonine-protein kinase PLK3 (Homo sapiens, UniProt Q9H4B4)
[16] = biological target: Serine/threonine-protein kinase DCLK1 (Homo sapiens, UniProt O15075);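 further: affinity for DCLK1 (listed as DCAMKL1) measured as one member of a kinome-wide kinase profiling panel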
[17] = biological target: Eukaryotic elongation factor 2 kinase (Homo sapiens, UniProt O00418)
[18] = biological target: Lymphokine-activated killer T-cell-originated protein kinase (Homo sapiens, UniProt Q96KB5);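 further: value comes from a kinase panel screen in which TOPK was one of the panel members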

Protein kinase C delta type, sequence (Q05655 whole entry): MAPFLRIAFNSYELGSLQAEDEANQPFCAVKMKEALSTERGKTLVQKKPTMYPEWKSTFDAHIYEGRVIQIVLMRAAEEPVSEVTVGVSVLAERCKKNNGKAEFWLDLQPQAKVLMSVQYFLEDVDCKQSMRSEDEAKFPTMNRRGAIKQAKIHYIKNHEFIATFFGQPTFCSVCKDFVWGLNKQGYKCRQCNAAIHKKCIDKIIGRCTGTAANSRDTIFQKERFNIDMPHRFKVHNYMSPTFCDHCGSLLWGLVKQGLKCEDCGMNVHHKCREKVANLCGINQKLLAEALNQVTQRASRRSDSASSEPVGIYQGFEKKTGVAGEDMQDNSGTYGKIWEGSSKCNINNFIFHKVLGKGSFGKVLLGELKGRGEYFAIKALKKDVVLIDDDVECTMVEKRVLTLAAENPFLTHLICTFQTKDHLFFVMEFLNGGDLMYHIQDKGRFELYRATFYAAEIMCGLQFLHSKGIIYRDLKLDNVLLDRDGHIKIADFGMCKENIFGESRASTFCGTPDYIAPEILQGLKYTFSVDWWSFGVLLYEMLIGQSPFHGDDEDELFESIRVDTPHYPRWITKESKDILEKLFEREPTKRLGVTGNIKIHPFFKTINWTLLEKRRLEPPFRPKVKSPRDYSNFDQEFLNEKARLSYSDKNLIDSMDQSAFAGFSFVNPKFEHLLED
Mitogen-activated protein kinase 1, sequence (P28482 whole entry): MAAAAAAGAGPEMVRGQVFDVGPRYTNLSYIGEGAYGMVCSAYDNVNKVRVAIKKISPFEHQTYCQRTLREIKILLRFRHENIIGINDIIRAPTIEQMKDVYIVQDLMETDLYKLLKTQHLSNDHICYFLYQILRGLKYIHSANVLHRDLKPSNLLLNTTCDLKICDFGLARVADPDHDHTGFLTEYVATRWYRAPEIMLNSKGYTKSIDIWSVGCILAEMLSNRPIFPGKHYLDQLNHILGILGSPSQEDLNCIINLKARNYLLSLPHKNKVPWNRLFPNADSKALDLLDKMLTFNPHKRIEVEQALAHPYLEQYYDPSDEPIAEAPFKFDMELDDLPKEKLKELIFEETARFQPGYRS
Mitogen-activated protein kinase 13, sequence (O15264 whole entry): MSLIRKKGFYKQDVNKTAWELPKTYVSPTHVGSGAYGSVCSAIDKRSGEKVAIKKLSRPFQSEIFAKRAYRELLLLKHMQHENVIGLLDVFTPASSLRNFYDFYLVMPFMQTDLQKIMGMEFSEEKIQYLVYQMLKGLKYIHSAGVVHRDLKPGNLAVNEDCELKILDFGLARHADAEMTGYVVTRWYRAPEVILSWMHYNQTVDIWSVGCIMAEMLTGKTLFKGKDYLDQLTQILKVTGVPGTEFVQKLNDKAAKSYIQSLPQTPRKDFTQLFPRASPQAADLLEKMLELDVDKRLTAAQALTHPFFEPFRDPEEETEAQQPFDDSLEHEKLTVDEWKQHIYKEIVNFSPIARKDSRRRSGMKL
Tyrosine-protein kinase receptor UFO, sequence (P30530 whole entry): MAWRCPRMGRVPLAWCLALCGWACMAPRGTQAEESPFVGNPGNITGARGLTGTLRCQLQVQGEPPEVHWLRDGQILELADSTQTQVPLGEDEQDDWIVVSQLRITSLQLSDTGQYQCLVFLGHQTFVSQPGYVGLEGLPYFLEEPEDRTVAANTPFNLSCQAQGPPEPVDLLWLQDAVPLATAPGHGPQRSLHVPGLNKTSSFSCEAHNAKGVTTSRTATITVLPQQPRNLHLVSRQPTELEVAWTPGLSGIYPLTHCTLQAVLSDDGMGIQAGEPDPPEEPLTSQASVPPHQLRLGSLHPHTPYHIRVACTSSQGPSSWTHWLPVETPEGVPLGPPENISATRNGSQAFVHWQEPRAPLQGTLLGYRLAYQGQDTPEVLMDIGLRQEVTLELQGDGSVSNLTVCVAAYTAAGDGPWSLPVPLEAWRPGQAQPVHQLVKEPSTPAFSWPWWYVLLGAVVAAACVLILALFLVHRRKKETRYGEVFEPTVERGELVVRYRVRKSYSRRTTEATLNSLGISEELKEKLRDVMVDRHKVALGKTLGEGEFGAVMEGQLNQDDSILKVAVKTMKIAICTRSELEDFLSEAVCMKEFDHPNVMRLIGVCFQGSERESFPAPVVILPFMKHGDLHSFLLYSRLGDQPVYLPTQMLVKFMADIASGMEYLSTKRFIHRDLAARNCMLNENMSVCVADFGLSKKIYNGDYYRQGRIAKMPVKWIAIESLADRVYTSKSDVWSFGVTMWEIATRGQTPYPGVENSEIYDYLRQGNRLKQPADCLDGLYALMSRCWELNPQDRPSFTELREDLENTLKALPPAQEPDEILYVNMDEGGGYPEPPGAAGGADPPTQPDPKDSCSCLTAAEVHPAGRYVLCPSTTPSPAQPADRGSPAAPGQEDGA
SRSF protein kinase 1, sequence (Q96SB4 whole entry): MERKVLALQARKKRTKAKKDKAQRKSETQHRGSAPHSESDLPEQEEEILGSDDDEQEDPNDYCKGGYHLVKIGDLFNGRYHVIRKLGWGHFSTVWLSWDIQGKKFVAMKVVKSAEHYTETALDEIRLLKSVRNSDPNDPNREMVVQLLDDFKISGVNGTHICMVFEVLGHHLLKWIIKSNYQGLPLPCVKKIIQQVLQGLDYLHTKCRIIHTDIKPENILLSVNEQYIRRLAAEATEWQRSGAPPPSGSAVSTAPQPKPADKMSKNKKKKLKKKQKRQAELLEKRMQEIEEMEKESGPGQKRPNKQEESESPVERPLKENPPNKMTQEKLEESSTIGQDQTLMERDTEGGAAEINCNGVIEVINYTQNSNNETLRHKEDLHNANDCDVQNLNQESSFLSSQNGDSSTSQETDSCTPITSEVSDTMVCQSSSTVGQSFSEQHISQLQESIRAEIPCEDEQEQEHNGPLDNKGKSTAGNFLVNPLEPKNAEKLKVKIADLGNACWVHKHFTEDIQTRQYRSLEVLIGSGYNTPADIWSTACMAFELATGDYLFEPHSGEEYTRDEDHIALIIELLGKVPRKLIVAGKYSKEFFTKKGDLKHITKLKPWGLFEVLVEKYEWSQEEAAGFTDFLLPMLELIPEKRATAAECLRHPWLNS
Eukaryotic elongation factor 2 kinase, sequence (O00418 whole entry): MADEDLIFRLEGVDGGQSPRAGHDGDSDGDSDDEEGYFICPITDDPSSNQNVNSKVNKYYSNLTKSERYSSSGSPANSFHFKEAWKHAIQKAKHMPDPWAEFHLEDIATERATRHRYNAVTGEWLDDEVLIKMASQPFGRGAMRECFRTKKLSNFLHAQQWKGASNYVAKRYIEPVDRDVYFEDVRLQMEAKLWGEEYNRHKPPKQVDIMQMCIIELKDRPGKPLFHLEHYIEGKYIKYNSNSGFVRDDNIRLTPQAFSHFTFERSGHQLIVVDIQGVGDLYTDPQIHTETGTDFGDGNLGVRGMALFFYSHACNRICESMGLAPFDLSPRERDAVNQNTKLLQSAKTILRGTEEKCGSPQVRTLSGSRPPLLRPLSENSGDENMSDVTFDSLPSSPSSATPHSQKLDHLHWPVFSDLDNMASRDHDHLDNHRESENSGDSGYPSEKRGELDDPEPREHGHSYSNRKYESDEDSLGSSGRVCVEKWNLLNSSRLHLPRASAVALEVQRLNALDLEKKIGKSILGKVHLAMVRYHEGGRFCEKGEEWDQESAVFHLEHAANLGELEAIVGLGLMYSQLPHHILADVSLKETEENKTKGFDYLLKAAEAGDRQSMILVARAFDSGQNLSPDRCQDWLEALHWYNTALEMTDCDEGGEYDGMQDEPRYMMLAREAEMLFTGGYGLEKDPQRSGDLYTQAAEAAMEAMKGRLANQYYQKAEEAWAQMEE
Mitogen-activated protein kinase kinase kinase kinase 4, sequence (O95819 whole entry): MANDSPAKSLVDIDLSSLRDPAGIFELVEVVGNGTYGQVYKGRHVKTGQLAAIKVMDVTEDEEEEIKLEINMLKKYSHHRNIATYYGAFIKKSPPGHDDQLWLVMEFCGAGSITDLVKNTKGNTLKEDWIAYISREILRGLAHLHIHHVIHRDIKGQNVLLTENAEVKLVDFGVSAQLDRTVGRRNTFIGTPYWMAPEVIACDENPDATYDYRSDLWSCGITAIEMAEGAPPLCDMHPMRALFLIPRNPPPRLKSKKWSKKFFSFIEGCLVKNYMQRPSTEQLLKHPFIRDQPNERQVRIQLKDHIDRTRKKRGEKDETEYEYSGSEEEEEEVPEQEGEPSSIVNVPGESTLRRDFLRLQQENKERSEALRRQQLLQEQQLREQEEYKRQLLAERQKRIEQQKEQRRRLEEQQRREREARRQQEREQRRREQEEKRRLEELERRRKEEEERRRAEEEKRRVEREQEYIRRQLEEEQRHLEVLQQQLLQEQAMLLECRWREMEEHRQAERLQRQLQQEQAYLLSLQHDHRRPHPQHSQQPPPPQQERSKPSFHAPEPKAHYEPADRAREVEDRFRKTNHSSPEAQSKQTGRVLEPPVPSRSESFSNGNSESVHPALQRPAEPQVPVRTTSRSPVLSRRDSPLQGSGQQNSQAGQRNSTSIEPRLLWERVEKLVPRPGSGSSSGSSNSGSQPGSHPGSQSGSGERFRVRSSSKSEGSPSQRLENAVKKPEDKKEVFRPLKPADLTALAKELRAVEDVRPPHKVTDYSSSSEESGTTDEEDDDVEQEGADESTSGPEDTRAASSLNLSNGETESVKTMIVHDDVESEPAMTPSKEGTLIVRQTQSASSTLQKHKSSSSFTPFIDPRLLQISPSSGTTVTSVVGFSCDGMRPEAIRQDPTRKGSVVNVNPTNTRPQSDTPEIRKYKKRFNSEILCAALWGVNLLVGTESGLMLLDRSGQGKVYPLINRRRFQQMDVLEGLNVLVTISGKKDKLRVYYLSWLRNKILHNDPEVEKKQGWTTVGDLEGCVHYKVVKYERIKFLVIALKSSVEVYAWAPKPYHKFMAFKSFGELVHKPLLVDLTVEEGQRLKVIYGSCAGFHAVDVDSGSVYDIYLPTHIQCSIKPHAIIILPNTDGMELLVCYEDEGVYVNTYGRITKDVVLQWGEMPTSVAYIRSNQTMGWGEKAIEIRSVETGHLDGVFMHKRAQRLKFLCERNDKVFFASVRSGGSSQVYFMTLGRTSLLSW

Compound: Cc1ccc(C(=O)NC2(O)C(=O)c3ccccc3C2=O)cc1C
IC50 [1]: 4.4 µM (active)

Compound: O=[N+]([O-])c1c(Nc2ccccn2)cc(Cl)c2nonc12
CC50 [2]: 16.8 µM (active)

Compound: CC[C@@H](C)[C@H](CNC)NC[C@@H](Cc1cccc2ccccc12)NCCc1cccc(C(F)(F)F)c1
EC50 [3]: 9.44 µM (active)
AC50 [4]: 8.08 µM (active)

Ki [5]: 6.31 µM (active)
Ki [6]: > 1.26 µM (inactive)
Ki [7]: > 7.94 µM (inactive)
Ki [8]: 3.98 µM (active)
Ki [9]: > 7.94 µM (inactive)
Ki [10]: > 10 µM (inactive)
Ki [11]: > 1.58 µM (inactive)
Ki [12]: > 6.31 µM (inactive)
Ki [13]: > 2 µM (inactive)
Ki [14]: > 7.94 µM (inactive)
Ki [15]: > 7.94 µM (inactive)
Ki [16]: > 10 µM (inactive)
Ki [17]: > 3.98 µM (inactive)
Compound: CC(C)(CO)CNc1nccc(-c2c(-c3ccc(F)cc3)nc3c(CC4CC4)nccn23)n1
Ki [18]: 0.316 µM (active)
